Source: ChEMBL document CHEMBL6092149, “Discovery of 1(2H)-phthalazinone and 1(2H)-isoquinolinone derivatives as potent hematopoietic progenitor kinase 1 (HPK1) inhibitors” (Eur J Med Chem, 2024)
One block for each compound: values may come before it. Activity calls are given as the source filed them. The calls are words filed in the database; no cut-off is given here.

Legend:
[1] = Plasma clearance in overnight fasted mouse at 1 mg/kg, iv; type: ADME, organism-based
[2] = biological target: T1, Mitogen-activated protein kinase kinase kinase kinase 1 (Homo sapiens, UniProt Q92918); assay: Inhibition of HPK1 in human Jurkat cells assessed as reduction in SLP76 phosphorylation pretreated for 1 hr followed by anti-CD3 addition and measured after 15 min by ELISA method; type: cell-based
Target sequence in this assay (Q92918 whole entry): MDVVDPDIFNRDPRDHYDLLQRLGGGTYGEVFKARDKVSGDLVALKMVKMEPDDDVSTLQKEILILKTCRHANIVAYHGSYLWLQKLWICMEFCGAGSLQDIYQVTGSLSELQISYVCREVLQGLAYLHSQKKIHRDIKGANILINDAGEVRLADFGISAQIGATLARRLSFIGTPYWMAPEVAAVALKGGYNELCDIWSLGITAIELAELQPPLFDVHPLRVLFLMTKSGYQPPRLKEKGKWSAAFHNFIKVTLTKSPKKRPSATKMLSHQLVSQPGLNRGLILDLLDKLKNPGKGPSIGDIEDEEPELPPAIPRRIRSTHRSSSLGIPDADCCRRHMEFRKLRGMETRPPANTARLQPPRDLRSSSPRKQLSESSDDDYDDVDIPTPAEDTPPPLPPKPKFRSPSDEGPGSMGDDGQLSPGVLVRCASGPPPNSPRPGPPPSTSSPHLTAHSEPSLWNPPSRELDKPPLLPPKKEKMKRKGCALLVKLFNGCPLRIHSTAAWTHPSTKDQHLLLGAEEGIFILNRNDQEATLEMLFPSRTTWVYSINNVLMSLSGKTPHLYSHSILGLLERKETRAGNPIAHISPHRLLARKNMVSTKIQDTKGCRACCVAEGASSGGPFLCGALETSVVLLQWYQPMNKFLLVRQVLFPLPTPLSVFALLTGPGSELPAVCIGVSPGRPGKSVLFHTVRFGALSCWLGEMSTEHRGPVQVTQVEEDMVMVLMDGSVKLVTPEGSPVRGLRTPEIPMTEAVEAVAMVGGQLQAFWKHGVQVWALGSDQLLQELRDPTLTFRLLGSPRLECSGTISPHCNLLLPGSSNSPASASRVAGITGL

[3] = Cmax in overnight fasted mouse at 10 mg/kg, po; type: ADME, organism-based; details: in vivo
[4] = AUC (0 to 24 hrs) in overnight fasted mouse at 10 mg/kg, po; type: ADME, organism-based; details: in vivo
[5] = Oral bioavailability in in overnight fasted mouse at 10 mg/kg; type: ADME, organism-based; details: in vivo
[6] = biological target: T1, Mitogen-activated protein kinase kinase kinase kinase 1; assay: Inhibition of HPK1 in human T cells assessed as increase in IL-2 secretion measured after 24 hrs by ELISA method; type: cell-based, T-cell; details: for Activity: T-cell
[7] = biological target: T1, Mitogen-activated protein kinase kinase kinase kinase 1; assay: Inhibition of N-terminal DYKDDDDK recombinant human HPK1 (1 to 346 residues) expressed in Sf21 insect cells preincubated for 10 min followed by fluorescein PKC and ATP addition and measured after 90 min by Envision2104 Multilabel Reader analysis
Target sequence in this assay (Q92918 whole entry): as above

[8] = Half life in overnight fasted mouse at 1 mg/kg, iv; type: ADME, organism-based; details: in vivo
[9] = Half life in overnight fasted rat at 1 mg/kg, iv; type: ADME, organism-based; details: in vivo
[10] = biological target: Voltage-gated inwardly rectifying potassium channel KCNH2 (Homo sapiens, UniProt Q12809); assay: Inhibition of HERG expressed in HEK293 cells at -80mV holding potential incubated for 24 to 48 hrs by whole-cell patch clamp method
[11] = Cmax in overnight fasted rat at 10 mg/kg, po; type: ADME, organism-based; details: in vivo
[12] = biological target: T1, Mitogen-activated protein kinase kinase kinase kinase 1; assay: Inhibition of HPK1 in human T cells assessed as increase in IL-2 secretion at 333 nM incubated for 2 hrs and measured after 24 hrs by ELISA method; type: cell-based; details: T-cell
Target sequence in this assay (Q92918 whole entry, looked up): as the sequence (Q92918 whole entry) above

[13] = AUC (0 to 24 hrs) in overnight fasted rat at 10 mg/kg, po; type: ADME, organism-based; details: in vivo
[14] = Plasma Clearance in overnight fasted rat at 1 mg/kg, iv; type: ADME, organism-based

Voltage-gated inwardly rectifying potassium channel KCNH2, sequence (Q12809 whole entry): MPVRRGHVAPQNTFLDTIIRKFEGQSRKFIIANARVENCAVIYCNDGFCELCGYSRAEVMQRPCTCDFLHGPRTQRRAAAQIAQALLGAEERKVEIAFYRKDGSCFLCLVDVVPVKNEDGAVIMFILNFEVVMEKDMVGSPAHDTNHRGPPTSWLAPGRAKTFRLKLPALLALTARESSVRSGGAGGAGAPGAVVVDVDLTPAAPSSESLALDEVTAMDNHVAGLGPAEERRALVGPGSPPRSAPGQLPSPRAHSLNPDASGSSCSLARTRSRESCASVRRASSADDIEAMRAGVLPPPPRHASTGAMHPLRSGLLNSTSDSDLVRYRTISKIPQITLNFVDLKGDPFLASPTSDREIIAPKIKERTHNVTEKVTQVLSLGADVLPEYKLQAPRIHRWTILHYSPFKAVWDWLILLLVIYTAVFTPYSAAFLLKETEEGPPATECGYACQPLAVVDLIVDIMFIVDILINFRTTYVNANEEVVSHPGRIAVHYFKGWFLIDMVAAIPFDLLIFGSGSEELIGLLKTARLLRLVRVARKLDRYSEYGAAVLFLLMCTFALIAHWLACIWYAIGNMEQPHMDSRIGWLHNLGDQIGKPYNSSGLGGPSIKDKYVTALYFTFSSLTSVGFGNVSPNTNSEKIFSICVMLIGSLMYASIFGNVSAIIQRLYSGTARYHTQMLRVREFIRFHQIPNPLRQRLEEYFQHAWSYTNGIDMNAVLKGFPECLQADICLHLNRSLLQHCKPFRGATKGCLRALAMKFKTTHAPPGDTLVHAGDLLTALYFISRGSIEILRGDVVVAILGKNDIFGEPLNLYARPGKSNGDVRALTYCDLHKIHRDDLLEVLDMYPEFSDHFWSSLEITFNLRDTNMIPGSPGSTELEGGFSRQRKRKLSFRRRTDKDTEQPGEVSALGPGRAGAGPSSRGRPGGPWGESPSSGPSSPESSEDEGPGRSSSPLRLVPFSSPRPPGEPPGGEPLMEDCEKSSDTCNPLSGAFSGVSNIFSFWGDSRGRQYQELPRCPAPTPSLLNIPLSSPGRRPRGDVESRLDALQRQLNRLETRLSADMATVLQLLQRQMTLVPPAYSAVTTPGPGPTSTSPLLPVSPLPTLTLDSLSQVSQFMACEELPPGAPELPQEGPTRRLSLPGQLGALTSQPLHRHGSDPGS

SMILES: CN(C)Cc1nc(Nc2ccc(-c3cnc4cc(F)ccn34)c3c2C(=O)NCC3)ccc1C1CCOCC1
- IC50 [7]: 525 nM

SMILES: CN(C)Cc1nc(Nc2ccc(-c3cnc4cc(F)ccn34)c3c2C(=O)NC3)ccc1C1CCOCC1
- clearance [1]: 269 mL/min/kg
- half-life [9]: 84 min
- IC50 [10]: 2850 nM
- Cmax [11]: 74 ng/mL
- Cmax [3]: 282 ng/mL
- Activity [12]: Active
- AUC(0-t) [4]: 1350 ng·h/mL
- AUC(0-t) [13]: 312 ng·h/mL
- clearance [14]: 230 mL/min/kg
- half-life [8]: 30 min

SMILES: O=c1[nH]ncc2c(-c3cnc4cc(F)ccn34)ccc(Nc3ccc(C4CCOCC4)c(CN4CCC(O)C4)n3)c12 (stereo unspecified)
- EC50 [6]: 223 nM
- Activity [6]: Dose-dependent-effect
- IC50 [7]: 39.1 nM

Further compounds by falling IC50 [7], results first:

- clearance [1]: 159 mL/min/kg
- EC50 [2]: 76 nM
- Cmax [3]: 308 ng/mL
- AUC(0-t) [4]: 892 ng·h/mL
- bioavailability [5]: 86%
- EC50 [6]: 220 nM
- Activity [6]: Dose-dependent-effect
- IC50 [7]: 20 nM
- half-life [8]: 24 min
SMILES: CN(C)Cc1nc(Nc2ccc(-c3cnc4cc(F)ccn34)c3cc[nH]c(=O)c23)ccc1C1CCOCC1

- clearance [1]: 263 mL/min/kg
- EC50 [2]: 19.2 nM
- Cmax [3]: 725 ng/mL
- AUC(0-t) [4]: 477 ng·h/mL
- bioavailability [5]: 77%
- EC50 [6]: 123 nM
- Activity [6]: Dose-dependent-effect
- IC50 [7]: 6.9 nM
- half-life [8]: 12 min
SMILES: CN(C)Cc1nc(Nc2ccc(-c3cnc4cc(F)ccn34)c3cn[nH]c(=O)c23)ccc1C1CCOCC1

- clearance [1]: 104 mL/min/kg
- EC50 [2]: 14 nM
- Cmax [3]: 484 ng/mL
- AUC(0-t) [4]: 506 ng·h/mL
- bioavailability [5]: 31%
- EC50 [6]: 187 nM
- Activity [6]: Dose-dependent-effect
- IC50 [7]: 5.4 nM
- half-life [8]: 30 min
SMILES: O=c1[nH]ncc2c(-c3cnc4cc(F)ccn34)ccc(Nc3ccc(C4CCOCC4)c(CN4CC[C@H](F)C4)n3)c12
